Experimental data: article PMC8163394 (2020)

What was measured:
[1] = test system: poly(dG-dC) (DNA, polymer) GC; experiment: emission titration, McGhee-von Hippel fit; conditions: 10 mM phosphate buffer (sodium in Fig. 2, potassium in Fig. S1); pH 7, air-saturated; [Ru] 20 μM; per base
[2] = test system: d(CGCGAATTCGCG)2 (DNA, duplex) CGCGAATTCGCG; experiment: emission titration (quenching), TRIR; conditions: 50 mM potassium phosphate; pH 7; [Ru] 10 μM
[3] = test system: poly(dA-dT) (DNA, polymer) AT; experiment: emission titration (enhancement), TRIR; conditions: 10 mM sodium phosphate, [Ru] 8 μM
[4] = test system: d(GCGCGCGCGC)2 (DNA, duplex) GCGCGCGCGC; experiment: TRIR and transient absorption; conditions: 50 mM potassium phosphate; pH 7, D2O
[5] = test system: d(CGCAAATTTGCG)2 (DNA, duplex) CGCAAATTTGCG; experiment: emission titration (complex, decrease then increase), TRIR; conditions: 50 mM potassium phosphate; pH 7; [Ru] 10 μM

SMILES	Kb [1]	binding [2]	binding ([3]; reaches saturation)	binding [4]	binding [5]	binding ([3]; saturation not reached)
[Ru+2].c1ccc2nc3c4cccnc4c4ncccc4c3nc2c1.c1cnc2c(ccc3nccnc32)n1.c1cnc2c(ccc3nccnc32)n1 [Δ-1]	3.6 ± 0.2 × 10^6 M^-1	yes	yes	yes	yes	
[Ru+2].c1ccc2nc3c4cccnc4c4ncccc4c3nc2c1.c1cnc2c(ccc3nccnc32)n1.c1cnc2c(ccc3nccnc32)n1 [Λ-1]	1.2 ± 0.1 × 10^6 M^-1	yes		yes	yes	yes
